Test results published in PubChem BioAssay (NCI).
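48-hour exposure; five concentrations; linearly interpolated endpoints. The concentration for full growth arrest is given as TGI.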

Key:
Assay in all cases: growth of human tumour cells (NCI), 48 h
[1] = tested on: LOX IMVI melanoma
[2] = tested on: K-562 leukemia
[3] = tested on: LXFL 529 NSCLC
[4] = tested on: ACHN renal
[5] = tested on: XF 498 CNS
[6] = tested on: SF-295 CNS
[7] = tested on: DMS 273 small cell lung
[8] = tested on: UACC-62 melanoma
[9] = tested on: SNB-19 CNS
[10] = tested on: SF-539 CNS
[11] = tested on: HT29 colon
[12] = tested on: U251 CNS
[13] = tested on: SN12C renal
[14] = tested on: KM12 colon
[15] = tested on: KM20L2 colon
[16] = tested on: SW-620 colon
[17] = tested on: NCI-H460 lung
[18] = tested on: DMS 114 small cell lung
[19] = tested on: HCT-15 colon
[20] = tested on: HOP-92 NSCLC
[21] = tested on: A498 renal
[22] = tested on: EKVX NSCLC
[23] = tested on: TK-10 renal
[24] = tested on: OVCAR-8 ovarian
[25] = tested on: NCI-H226 lung
[26] = tested on: CAKI-1 renal
[27] = tested on: 786-0 renal
[28] = tested on: COLO 205 colon
[29] = tested on: M14 melanoma
[30] = tested on: SK-MEL-2 melanoma
[31] = tested on: HCC-2998 colon
[32] = tested on: UO-31 renal
[33] = tested on: HOP-18 NSCLC
[34] = tested on: SK-OV-3 ovarian
[35] = tested on: UACC-257 melanoma
[36] = tested on: MOLT-4 leukemia
[37] = tested on: RPMI-8226 leukemia
[38] = tested on: SNB-75 CNS
[39] = tested on: DLD-1 colon
[40] = tested on: SR leukemia
[41] = tested on: SK-MEL-28 melanoma
[42] = tested on: OVCAR-5 ovarian
[43] = tested on: NCI-H23 lung
[44] = tested on: A549 NSCLC
[45] = tested on: HL-60(TB) leukemia
[46] = tested on: SF-268 CNS
[47] = tested on: M19-MEL melanoma
[48] = tested on: OVCAR-3 ovarian
[49] = tested on: MALME-3M melanoma
[50] = tested on: IGROV1 ovarian
[51] = tested on: OVCAR-4 ovarian
[52] = tested on: CCRF-CEM leukemia
[53] = tested on: NCI-H522 lung
[54] = tested on: SK-MEL-5 melanoma
[55] = tested on: HOP-62 NSCLC
[56] = tested on: SNB-78 CNS
[57] = tested on: HCT-116 colon
[58] = tested on: RXF 393 renal
[59] = tested on: RXF-631 renal

CCN(CC)CCN(C)CC(C)(C)C(=O)/C=C/c1ccccc1
TGI [1]: 24 µM | TGI [2]: > 100 µM | TGI [3]: 24.7 µM | TGI [4]: 26.5 µM | TGI [5]: 24.8 µM | TGI [6]: 29.4 µM | TGI [7]: 26.1 µM | TGI [8]: 26.9 µM | TGI [9]: 28.4 µM | TGI [10]: 19 µM | TGI [11]: 24.9 µM | TGI [12]: 22.1 µM | TGI [13]: 22.7 µM | TGI [14]: 25.4 µM | TGI [15]: 23.1 µM | TGI [16]: 24.2 µM | TGI [17]: 20.3 µM | TGI [18]: 21.4 µM | TGI [19]: 28.4 µM | TGI [20]: 18.1 µM | TGI [21]: 17.3 µM | TGI [22]: 26.1 µM | TGI [23]: 36.8 µM | TGI [24]: 43.2 µM | TGI [25]: 32.4 µM | TGI [26]: 28.7 µM | TGI [27]: 29.4 µM | TGI [28]: 26.6 µM | TGI [29]: 25.7 µM | TGI [30]: 24.2 µM | TGI [31]: 27.7 µM | TGI [32]: 26.2 µM | TGI [33]: 30.6 µM | TGI [34]: 26.6 µM | TGI [35]: 24.4 µM | TGI [36]: 30.5 µM | TGI [37]: 36 µM | TGI [38]: 18.3 µM | TGI [39]: 22.2 µM | TGI [40]: 45.5 µM | TGI [41]: 30.3 µM | TGI [42]: 26.9 µM | TGI [43]: 25.7 µM | TGI [44]: 47.2 µM | TGI [45]: 28.9 µM | TGI [46]: 27.2 µM | TGI [47]: 24.3 µM | TGI [48]: 26.2 µM | TGI [49]: 28.5 µM | TGI [50]: 36.5 µM | TGI [51]: 24.3 µM | TGI [52]: 38.4 µM | TGI [53]: 21.4 µM | TGI [54]: 27.3 µM | TGI [55]: 37 µM

O=C(CC(O)(c1ccccc1)c1ccc(Cl)cc1)NC(=O)c1ccccc1O (configuration not stated)
TGI [1]: 23.3 µM | TGI [2]: > 100 µM | TGI [3]: 56.3 µM | TGI [4]: 99 µM | TGI [6]: 26.3 µM | TGI [7]: 39 µM | TGI [8]: 21.3 µM | TGI [9]: > 100 µM | TGI [10]: 46.8 µM | TGI [11]: 53 µM | TGI [12]: 26.5 µM | TGI [13]: 32 µM | TGI [14]: 21.9 µM | TGI [15]: 34.3 µM | TGI [16]: > 100 µM | TGI [17]: 26.7 µM | TGI [56]: > 100 µM | TGI [57]: 52.6 µM | TGI [18]: 31.5 µM | TGI [19]: 37.5 µM | TGI [20]: 6.59 µM | TGI [21]: 8.62 µM | TGI [22]: 68.2 µM | TGI [23]: 41.2 µM | TGI [24]: 61.3 µM | TGI [25]: 29.8 µM | TGI [26]: 23.2 µM | TGI [58]: 49 µM | TGI [27]: 44.9 µM | TGI [28]: 27.5 µM | TGI [29]: 27.9 µM | TGI [30]: 22.1 µM | TGI [31]: 21.1 µM | TGI [32]: 6.75 µM | TGI [33]: 8.97 µM | TGI [34]: 55.4 µM | TGI [35]: 32.6 µM | TGI [36]: 46.7 µM | TGI [38]: 40.8 µM | TGI [39]: > 100 µM | TGI [40]: 39.6 µM | TGI [41]: > 100 µM | TGI [42]: 8.95 µM | TGI [43]: 26.9 µM | TGI [44]: > 100 µM | TGI [59]: 74.8 µM | TGI [45]: 25 µM | TGI [46]: > 100 µM | TGI [47]: 82.8 µM | TGI [48]: 27.4 µM | TGI [49]: 70.6 µM | TGI [50]: > 100 µM | TGI [51]: > 100 µM | TGI [52]: 43.2 µM | TGI [53]: 14.9 µM | TGI [54]: 19.1 µM | TGI [55]: 25.6 µM
